# Assay results as given in patent EP1462117A1, “Method for in vivo detection of antipsychotic properties of dopamine D3 receptor ligands” (priority 2003, dated 2004).
# Values joined by “and” are separate entries in the source; they are usually repeats but may differ in a detail not shown here. Equal values may be shown once.
# Assays:
# Swiss mice [1] = experiment: MK-801 (dizocilpine)-induced and spontaneous locomotor activity, acute treatment, actimeter; assay type: in vivo; conditions: for MK-801-induced hyperactivity: post-hoc vs saline
# Method: (§1) Male Swiss mice (Iffa Credo, France), weighing 25-30 g, were housed four per cage (25 × 15 × 13 cm), on a 12 hr/12 hr light/dark cycle (lights on at 07:00 a.m.), with food and water ad libitum. […] Experiments with D3R-deficient mice were performed on male homozygous mutant mice and their wild-type littermates. […] The mice used in the present study were backcrossed 7 to 8 times.
# Haloperidol (Janssen Pharmaceuticals, Beerse, Belgium) and clozapine (Novartis, Basel, Switzerland) were dissolved in a few drops of hydrochloric acid and distilled water, and the pH of the solution was adjusted to pH 5 to 6 using NaOH. […] The compounds were injected i.p. in a volume of 5 ml/kg.
# (§2) All experiments were conducted between 2.00 p.m. and 6.00 p.m., and the animals were kept in the test room at least 1 h before recording their activity. […] Counts for forward horizontal activity were incremented each time the animal moved from one-half part of the cage to the other, corresponding to disruption of two crossed parallel beams distant of 14 cm. In time-course studies, counts were summed every 5 min.
# (§3) Between-group differences were analyzed with the Statistica™ software using two-way analysis of variance (ANOVA) and Least Significance Difference (LSD) post-hoc test. The analysis of data obtained with the same animals evaluated on several occasions (time-course experiments), between-within univariate or multivariate ANOVA for repeated measures were used (time being the repeated measure).
# To assess simply the in vivo biological activity of the novel compound at the D3 receptor, the above described test, in which hyperlocomotion induced by low doses of dizocilpine is measured, was used.
# wild-type (D3R^+/+) mice = experiment: MK-801-induced locomotor activity in wild-type mice; assay type: in vivo
# Method: Male Swiss mice (Iffa Credo, France), weighing 25-30 g, were housed four per cage (25 × 15 × 13 cm), on a 12 hr/12 hr light/dark cycle (lights on at 07:00 a.m.), with food and water ad libitum. […] Experiments with D3R-deficient mice were performed on male homozygous mutant mice and their wild-type littermates. […] Subsequently, these mice were backcrossed up to 8 times with C57BL6 mice. The mice used in the present study were backcrossed 7 to 8 times.
# as §2
# (§4) In addition, another experiment was performed with two groups of 8 mice of each genotype, injected with either saline or haloperidol (0.05 mg/kg).
# as §3
# [2] = test system: D3 receptor-deficient mice (D3R^-/-); experiment: MK-801-induced locomotor activity in D3 receptor-deficient mice; assay type: in vivo; conditions: compound 1 mg/kg; MK-801 […]; D3R^-/- mice
# Method: as §1, §2, §4, §3
# Swiss mice [3] = experiment: Locomotor hyperactivity induced by continuous infusion of MK-801 (osmotic minipumps); assay type: in vivo
# Method: Male Swiss mice (IFFA CREDO, France), weighing 26-28 g, were housed six per cage (25 × 15 ×13 cm), on a 12 h/12 h light/dark cycle (lights on at 07:00 a.m.), with food and water freely available. Room temperature ranged from 20° to 22°C and humidity varied between 55% and 65%.
# Dizocilpine, as (+)-MK-801 maleate (Sigma), dissolved in 0.9% NaCl (saline), and its respective vehicle solution, was continuously infused via osmotic minipumps (Model 1007D, Alzet Corp.). Minipumps were filled 6 h prior to implantation and placed in a sterile saline water bath at 37°C. Taking into consideration the average weight of the mice at the time of testing, and the rate of the minipump delivery (specified by the manufacturer), the MK-801 concentration was adjusted to deliver 0.01 or 0.02 mg/kg/hr (0.48 mg/kg/day). Mice were anaesthetized with chloral hydrate (400 mg/kg i.p.), and an area on the back of the mice was shaved and cleaned with 70% ethanol. A small incision was made, a pocket beneath the skin was formed and the minipump was placed inside the pocket in each mouse. The incision was sutured, and cleaned with 70% ethanol. The mice were returned in their home cage and in about 2 h they had recovered and were active.
# Once the minipumps implanted (Day 0), the locomotor activity was measured for 1h, at days 2, 4 and 7 in an actimeter (Imetronic, Pessac, France).
# as §3, with “measure). Data from the resident-intruder assay were analyzed by analysis of variance (ANOVA), followed by a Tukey-Kramer Multiple Comparison post-hoc test.” for “measure).”
# MK-801-treated mice = experiment: Resident-intruder assay in MK-801-treated mice; assay type: in vivo; conditions: MK-801 0.02 mg/kg/h for 7 days; compound 1 mg/kg i.p. 30 min prior testing; 5 min
# Method: Male mice were housed individually or in groups of five for at least 1 week prior to minipump implantation (Day 0), delivering MK-801 (0.02 mg/kg/h) or saline (Sham), and were tested at day 7. As described in Dixon et al. (1994), a group-housed male (intruder) was placed in the home cage of the individually housed male (resident), and their behaviors were video recorded for 5 min. […] The videotaped behaviors of the resident or intruder male were individually scored, by an experimenter unaware of the treatment group, for time spent in social investigation (approaching, sniffing, grooming other mouse, and sexual behavior), and in escape behavior (actively avoiding the unfamiliar congener). The scores for each behavior were subsequently averaged for each group.
# as §3, with “measure). Data from the resident-intruder assay were analyzed by analysis of variance (ANOVA), followed by a Tukey-Kramer Multiple Comparison post-hoc test.” for “measure).”
# PD-like rats = experiment: Rotations in PD-like rats (6-hydroxydopamine lesion, levodopa-treated); assay type: in vivo; conditions: saline 108 ± 7
# [4] = Plasma concentrations in monkeys (radioreceptor assay); assay type: in vivo
# [5] = Plasma concentrations in mice; assay type: in vivo; conditions: after injection at a dose giving selective effects at the D3 receptor; n = 6
# MPTP-intoxicated monkeys = experiment: Levodopa-induced dyskinesia, PD-like symptoms and locomotor activity in MPTP-intoxicated monkeys
smiles,measurement,setting,value
"COc1ccccc1N1CCN(CCCCNC(=O)c2ccc3ccccc3c2)CC1 [BP 897, 1-(4-(2-Naphthoylamino)butyl)-4-(2-methoxyphenyl)-1A-piperazine]",activity with MK-801,"Swiss mice [1]; MK-801 […], 60 min, compound i.p. 0.1, 0.3, 1 mg/kg (haloperidol 0.03, 0.1, 0.3 mg/kg), overall dose-response",dose-dependently reduced
same,level to which locomotor activity in MK-801-treated mice was reduced,"Swiss mice [1]; MK-801 […], level corresponds to saline-treated mice",30-40%
same,MK-801-induced hyperactivity,"Swiss mice [1]; compound 0.3 mg/kg i.p., MK-801 […]",significantly reduced
same,MK-801-induced hyperactivity,"Swiss mice [1]; compound 1 mg/kg i.p., MK-801 […]",significantly reduced
same,decrease of the activity in the presence of MK-801,"Swiss mice [1]; compound 1 mg/kg, MK-801 0.3 mg/kg, statistically non significant",10-15%
same,spontaneous activity,"Swiss mice [1]; habituation phase, 30 min starting 5 min after injection, all doses tested",without any effect
same,minimal active dose to reduce the hyperactivity induced by 0.3 mg/kg of MK-801,wild-type (D3R^+/+) mice; D3R^+/+ and D3R^-/- mice,3 mg/kg
same,MK-801-induced activity,"wild-type (D3R^+/+) mice; compound 1 mg/kg, MK-801 […], D3R^+/+ mice",inhibited
same,spontaneous activity during the habituation phase,"wild-type (D3R^+/+) mice; compound 1 mg/kg, experiment with D3R^+/+ and D3R^-/- mice",Neither of the drugs affected
same,locomotor response to MK-801,[2],no longer able to inhibit
same,MK-801-induced hyperactivity,"Swiss mice [3]; acute administration on the 10th day after minipump implantation, clozapine 1 mg/kg, haloperidol 0.3 mg/kg, BP 897 1 mg/kg",effect similar to that produced by clozapine or haloperidol
same,spontaneous hyperactivity,"Swiss mice [3]; subchronic treatment twice a day for 4.5 days from day 6, BP 897 1 mg/kg, haloperidol 0.3 mg/kg, recorded at least 6 hours after last administration",reversed
same,methamphetamine-induced hyperactivity,"Swiss mice [3]; subchronic treatment twice a day for 4.5 days from day 6, methamphetamine 1 mg/kg, recorded at least 6 hours after last administration",reversed
same,Social investigations,MK-801-treated mice,restored
same,escape behavior,MK-801-treated mice,completely normalized
same,numbers of rotations,"PD-like rats; BP 897 0.1 mg/kg with levodopa 50 mg/kg, n = 8",89 ± 10
same,numbers of rotations,"PD-like rats; BP 897 0.3 mg/kg with levodopa 50 mg/kg, n = 17",91 ± 12
same,numbers of rotations,"PD-like rats; BP 897 1.0 mg/kg with levodopa 50 mg/kg, n = 13",68 ± 8
same,numbers of rotations,"PD-like rats; BP 897 3.0 mg/kg with levodopa 50 mg/kg, n = 13",66 ± 12
same,maximal plasma concentration,[4]; BP 897 5.0 or 10 mg/kg orally,280 ± 110 nM
same,time of maximal plasma concentration,"[4]; monkey, in vivo",60 min
same,half-life,"[4]; monkey, plasma",~1 h
same,plasma concentration,[5],130 ± 14 nM
same,attenuation of LID,"MPTP-intoxicated monkeys; calculated from areas under curve, BP 897 5.0 or 10 mg/kg orally with levodopa",66%
same,on-time duration,"MPTP-intoxicated monkeys; from activity counts, threshold at 30% of the maximal activity, over 5 hr",no difference with placebo
same,antidyskinetic effect along repeated administrations,"MPTP-intoxicated monkeys; one monkey, BP 897 12 times",did not show any obvious signs of decline
same,dose reaching a maximal effect on LID,"MPTP-intoxicated monkeys; tailored for each monkey, oral, with a fixed dose of levodopa, 5.0 (n = 1), 10 (n = 4)",5.0 mg/kg and 10 mg/kg
same,locomotor activity (activity counts),MPTP-intoxicated monkeys; with levodopa,undermine the levodopa-induced activity around the dyskinesia threshold
same,antiparkinson activity of the compound alone,"MPTP-intoxicated monkeys; without levodopa, two dyskinetic monkeys",no antiparkinson activity
